Experimental data taken from patent US11485792B2, “Antibodies, uses thereof and conjugates thereof” (Polytherics Limited, priority 2016, dated 2022).
Like-named read-outs stand apart in the source and are kept apart here. Where a SMILES comes first, the peptide text is derived from it. [ ]: non-standard residue; d: D form. The star is where a group is joined. Dolaproine = CO[C@@H]([C@@H]1CCCN1)[C@@H](C)C(=O)O; Dil = CC[C@H](C)[C@H](NC)[C@@H](CC(=O)O)OC; X1 = C[C@@H](N*)[C@@H](O)c1ccccc1; NMeV = CN[C@H](C(=O)O)C(C)C

Experiments:
[1] = tested on: LNCaP cells; format: cell-based
Text: (§1) The protocol describes cell seeding, drug treatment and determination of the cell viability in reference to untreated cells based on ATP synthesis, which is directly related to the number of cells present in the well.

[2] = tested on: C4-2 cells; test: In vitro cell viability assay (CellTiter Glo), C4-2; format: cell-based, human; settings: Example 16; PSMA-positive C4-2, 96 h
Text: as §1

[3] = tested on: PC-3 cells; test: In vitro cell viability assay (CellTiter Glo), PC-3 (PSMA-negative control); format: cell-based; settings: Example 16; PSMA-negative PC-3 (negative control), 96 h
Text: Loss of tumour cell viability following treatment with cytotoxic drugs or ADCs in vitro can be measured by growing cell lines in the presence of increasing concentrations of drugs or ADCs and quantifying the loss of proliferation or metabolic activity using CellTiter Glo® Luminescence reagent (Promega Corp. Technical Bulletin TB288; Lewis Phillips G. D, Cancer Res 2008; 68:9280-9290). The protocol describes cell seeding, drug treatment and determination of the cell viability in reference to untreated cells based on ATP synthesis, which is directly related to the number of cells present in the well.
PSMA-positive LNCaP (clone FGC) and C4-2 cells, as well as PSMA-negative PC-3 cells were detached with TrypLE and resuspended in complete medium. Cells were counted using disposable Neubauer counting chambers and cell density adjusted to 10×10^4 cells/mL for LNCaP, 2×10^4 cells/mL for C4-2 and 1×10^4 cells/mL for PC-3 respectively. […]
The cell viability assay was carried out using the Cell-Titer Glo® Luminescence reagent, as described by the manufacturer's instructions, (Promega Corp. Technical Bulletin TB288; Lewis Phillips G. D, Cancer Res 2008; 68:9280-9290). Luminescence was recorded using a plate reader (e.g. Molecular Devices Spectramax M3 plate reader), and data subsequently analysed using a four parameter non-linear regression model. […]

[4] = Heat stress test with SEC analysis of aggregation; format: physicochemical
Procedure: Antibody samples (0.5 mg/mL in PBS) were incubated at 75° C. for 30 min followed by incubation in an ice-bath for 5 min prior to being analysed for their extent of aggregation. Analysis of antibody solutions was carried out by Size Exclusion Chromatography (SEC) and by turbidity measurements.
SEC was performed using a TOSOH Bioscience TSK gel Super SW 3000 column. UV absorbance at 280 nm was monitored during an isocratic elution with a 0.2 M Potassium phosphate buffer, pH 6.8 (0.2 M potassium chloride and 15% isopropanol). The elution times and number of peaks indicate whether the sample contains aggregated, degraded or native antibody. The % area under the curve (Abs280) was used to determine the quantity of each species present in the SEC analysis.

[5] = post stress test: 0.5 mg/mL in PBS, 75° C. for 30 min, then ice-bath 5 min, SEC

| Compound | IC50 ([1]; Example 16, PSMA-positive LNCaP, 96 h) [nM] | IC50 [2] [nM] | IC50 [3] [nM] | IC50 ([1]; Example 14, LNCaP, 96 h incubation) [nM] | Ab in aggregated form (%) [4, 5] [%] | Ab in native conformation (%) [4, 5] [%] | stability in heat stress SEC analysis (in words) ([4]; propensity to aggregate upon heating and cooling) |
| --- | --- | --- | --- | --- | --- | --- | --- |
| COc1cc2cc(c1Cl)N(C)C(=O)C[C@H](OC(=O)[C@H](C)N(C)C(=O)CCCCCN)[C@]1(C)O[C@H]1[C@H](C)[C@@H]1C[C@@](O)(NC(=O)O1)[C@H](OC)/C=C/C=C(\C)C2 [AHX-DM1] | 341 | 57 | > 1000 |  |  |  |  |
| CC[C@H](C)[C@@H]([C@@H](CC(=O)N1CCC[C@H]1[C@H](OC)[C@@H](C)C(=O)N[C@H](C)[C@@H](O)c1ccccc1)OC)N(C)C(=O)[C@@H](NC(=O)[C@@H](NC)C(C)C)C(C)C [MMAE] (H-[NMeV]V[Dil][Dolaproine]-X1) |  | 0.28 | 8.2 | 0.81 |  |  |  |
| AB-22: de-immunised J591 anti-PSMA antibody, SEQ ID No 25 and 26; prior art comparator |  |  |  |  | 100 | 0 | less stable than AB-03 |
